Records with an inconclusive call do not appear. Activity calls are given as the source filed them.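 How the source made its calls: active means fitted curve crosses a set inhibition level at a dose up to twice the top tested dose; inconclusive means flat curve with moderate inhibition, or an unreliable curve fit; inactive means the rest, including signal rising instead of falling.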
Tested on: HEK293 LMP1 TES2 NF-kB luciferase reporter, 16 h
Assay: inhibitors of TNFa-stimulated NF-kB luciferase reporter, dose response, selectivity assay for EBV LMP1 NF-kB inhibitor project, HEK293 LMP1 reporter cells, dry powder, set 2 (AID 624369)

N#C[C@H]1[C@H](c2ccc(C#Cc3ccccc3F)cc2)[C@@H](CO)N1C(=O)c1cccnc1
AC35: 20.1 µM

COc1ccccc1C#Cc1ccc2c(c1)O[C@H](CN(C)Cc1cccnc1)[C@H](C)CN([C@H](C)CO)S2(=O)=O
AC35: 20.7 µM

O=C(C[C@@H]1CC[C@@H]2[C@H](COC[C@@H](O)CN2Cc2ccc(Oc3ccccc3)cc2)O1)N1CCc2ccccc2C1
AC35: 8.89 µM

O=C(C[C@@H]1CC[C@@H]2[C@H](COC[C@@H](O)CN2Cc2ccc3c(c2)OCO3)O1)Nc1ccc(-c2ccccc2)cc1
AC35: 11.2 µM

Cc1cc(C(=O)Nc2ccc3c(c2)C(=O)N(C)[C@@H]2CC[C@H](CC(=O)NCc4ccc(-c5ccccc5)cc4)O[C@@H]2CO3)no1
AC35: 6.74 µM

COc1ccc(S(=O)(=O)N(C)C[C@H]2Oc3ncc(/C=C/c4ccccc4)cc3C(=O)N([C@H](C)CO)C[C@@H]2C)cc1
AC35: 21.9 µM

CC(C)(C)[S@@](=O)N1Cc2cc(C(=O)NCc3ccccn3)nc(-c3cccc(-c4ccccc4F)c3)c2[C@H]1CCO
AC35: 26.1 µM

O=C(C[C@@H]1C[C@@H]2c3cc(NS(=O)(=O)c4ccc(F)cc4)ccc3O[C@@H]2[C@@H](CO)O1)NCc1ccc(Oc2ccccc2)cc1
AC35: 16.7 µM

CC(C)(C)[S@@](=O)N1Cc2cc(C(=O)NCc3ccccc3F)nc(-c3cccc(-c4cccnc4)c3)c2[C@H]1CCO
AC35: 12.7 µM

O=C(C[C@H]1C[C@@H]2c3cc(NC(=O)c4ccc5c(c4)OCO5)ccc3O[C@@H]2[C@@H](CO)O1)NCc1ccc(Oc2ccccc2)cc1
AC35: 24.6 µM

COc1ccc(CNC(=O)c2cc3c(c(-c4cccc(-c5ccc(C#N)cc5)c4)n2)[C@@H](CCO)N([S@](=O)C(C)(C)C)C3)cc1
AC35: 19.5 µM

COc1ccc(-c2cccc(-c3nc(C(=O)NCC(F)(F)F)cc4c3[C@H](CCO)N([S@@](=O)C(C)(C)C)C4)c2)cc1
AC35: 28 µM

Cc1ccc(S(=O)(=O)N(C)C[C@H]2Oc3cc(C#Cc4ccncc4)ccc3S(=O)(=O)N([C@@H](C)CO)C[C@@H]2C)cc1
AC35: 10.2 µM

O=C(C[C@H]1C[C@H]2c3cc(NC(=O)c4ccc5c(c4)OCO5)ccc3O[C@H]2[C@H](CO)O1)NCc1ccc(Oc2ccccc2)cc1
AC35: 30 µM

CN(C)c1ccc2c(c1)[C@@H]1C[C@@H](CC(=O)NCc3ccc(Oc4ccccc4)cc3)O[C@H](CO)[C@@H]1O2
AC35: 10.3 µM

C[C@@H](NC(=O)C[C@H]1C[C@@H]2c3cc(NC(=O)c4cccnc4)ccc3O[C@@H]2[C@@H](CO)O1)c1ccccc1
AC35: > 35 µM (inactive)

Cc1cc(C(=O)Nc2ccc3c(c2)C(=O)N(C)[C@@H]2CC[C@@H](CC(=O)NCc4ccc(-c5ccccc5)cc4)O[C@H]2CO3)no1
AC35: 12.4 µM

Cc1cc(C(=O)Nc2ccc3c(c2)C(=O)N(C)[C@H]2CC[C@@H](CC(=O)NCc4ccc(-c5ccccc5)cc4)O[C@H]2CO3)no1
AC35: 13.5 µM

CN(C)C(=O)c1cccc(-c2cccc(-c3nc(C(=O)NCc4ccccc4)cc4c3[C@@H](CCO)N([S@](=O)C(C)(C)C)C4)c2)c1
AC35: 10.3 µM

CN(C)C(=O)c1ccc(-c2cccc(-c3nc(C(=O)NCc4ccccc4)cc4c3[C@@H](CCO)N([S@](=O)C(C)(C)C)C4)c2)cc1
AC35: 10.7 µM

N#C[C@H]1[C@H](c2ccc(C#Cc3ccccc3F)cc2)[C@H](CO)N1C(=O)c1cccnc1
AC35: 31.3 µM

C[C@@H]1CN([C@@H](C)CO)S(=O)(=O)c2ccc(C#Cc3ccncc3)cc2O[C@H]1CN(C)C(=O)Nc1ccc2c(c1)OCO2
AC35: 21.4 µM

From PubChem BioAssay AID624369 (Broad Institute, 2012)
